Measured values as given in patent publication US10898498B2, “Slow release oxysterols and methods of use” (Warsaw Orthopedic, Inc., priority 2015, dated 2021).
Entries after “also recorded” stand apart in the source; their conditions may differ.

Key:
[1] = system: multipotent mesenchymal cells such as M2-10B4 (M2) marrow stromal cells and C3H10T1/2 embryonic fibroblasts; details: M2-10B4 marrow stromal cells and C3H10T1/2 embryonic fibroblasts; cited from earlier work
[2] = system: rat two-level spine model (posterolateral space, L3-L5); assay: Rat two-level posterolateral spine fusion model, implants placed bilaterally; radiographs and manual palpation; type: in vivo; details: for bone growth / bridging bone on radiographs: 4-week and 8-week timepoints; for spinal fusion by manual palpation evaluation of the spine segments: 8 weeks; for fusion observed (share of rat spines fused, manual palpation): matrix of Oxy133, collagen and ceramic wetted with sterile water, bilateral, 8-week sacrifice, 5/5 spines
Procedure: FIG. 6 illustrates uses of a formulation of malleable implants having 20 mg of Oxy133 on each side of the implant, in accordance with the malleable implants described herein. […] A dry composition of a matrix containing Oxy133, collagen and ceramic as described herein was prepared and wetted with sterile water to be implanted in rat spines as shown in FIG. 6. The wetted matrix was cut in half with a razor blade to yield two halves. The two implants were molded into cylindrical shapes prior to insertion and were positioned bilaterally in the posterolateral space of each test subject. Each implant contained 20 mg Oxy133. Radiographs were taken roughly 10 minutes after the procedure, 4 weeks after the procedure, and 8 weeks after the procedure. […] Fusion was tested at 8-week sacrifice by manual palpation. […] A dry composition of a matrix containing Oxy133, collagen and ceramic as described herein was prepared and wetted with sterile water to be implanted in rat spines as shown in FIG. 6. The wetted matrix was cut in half with a razor blade to yield two halves. The two implants were molded into cylindrical shapes prior to insertion and were positioned bilaterally in the posterolateral space of each test subject. Each implant contained 125 mg Oxy133. Radiographs were taken roughly 10 minutes after the procedure, 4 weeks after the procedure, and 8 weeks after the procedure. […] Fusion was tested at 8-week sacrifice by manual palpation.

CC(C)CC[C@@H](O)[C@@H](C)[C@H]1CC[C@H]2[C@@H]3CC=C4C[C@@H](O)CC[C@]4(C)[C@H]3CC[C@]12C [22(R)-hydroxycholesterol]
osteogenic differentiation [1]: induce osteogenic differentiation

CC(C)CCC[C@](C)(O)[C@H]1CC[C@H]2[C@@H]3CC=C4C[C@@H](O)CC[C@]4(C)[C@H]3CC[C@@]21C [20(S)-hydroxycholesterol]
osteogenic differentiation [1]: induce osteogenic differentiation

CCCCCC[C@](C)(O)[C@H]1CC[C@H]2[C@@H]3C[C@H](O)[C@H]4C[C@@H](O)CC[C@]4(C)[C@H]3CC[C@@]21C [Oxy133, (3S,5S,6S,8R,9S,10R,13S,14S,17S)-17-((S)-2-hydroxyoctan-2-yl)-10,13-dimethylhexadecahydro-1H-cyclopenta[a]phenanthrene-3,6-diol]
bone growth / bridging bone on radiographs ([2]; each implant 20 mg Oxy133): Bone growth in rat test subjects can be seen; also recorded: promoted bridging bone across the transverse processes of L3-L5 | spinal fusion by manual palpation evaluation of the spine segments ([2]; each implant 20 mg Oxy133): yielded spinal fusion; also recorded: limited flexibility | bone growth / bridging bone on radiographs ([2]; each implant 125 mg Oxy133): Bone growth in rat test subjects can be seen; also recorded: promoted bridging bone across the transverse processes of L3-L5 | spinal fusion by manual palpation evaluation of the spine segments ([2]; each implant 125 mg Oxy133): yielded spinal fusion; also recorded: limited flexibility | fusion observed (share of rat spines fused, manual palpation) ([2]; each implant 20 mg Oxy133): 100% | fusion observed (share of rat spines fused, manual palpation) ([2]; each implant 125 mg Oxy133): 100%

CC(C)CC[C@H](O)[C@@H](C)[C@H]1CC[C@H]2[C@@H]3CC=C4C[C@@H](O)CC[C@]4(C)[C@H]3CC[C@]12C [22(S)-hydroxycholesterol]
osteogenic differentiation [1]: induce osteogenic differentiation
